Test [1] can be described thus: Chemopreventive index, ratio of IC50 for mouse Hepa-1c1c7 cells to drug level required to double NADPH:quinone reductase activity in mouse Hepa-1c1c7 cells.
The subject of test [2] is HT-29. The test is described as follows: Cytotoxicity against human HT-29 cells after 3 days by sulforhodamine B assay. Particulars: HT-29, 72 h. In kind it is functional, cell-based.
The nature of test [3]: Antioxidant activity assessed as hydroxyl radical scavenging activity after 5 mins by H2DCF-DA dye based fluorescence spectrophotometric analysis. In kind it is functional.
Test [4] concerns PC-3. The test is described as follows: Cytotoxicity against human PC3 cells after 48 hrs by MTT assay. Type of test: functional. Particulars: PC-3, 48 h.
In test [5] the test system is MCF7. The test is described as follows: Cytotoxicity against human MCF7 cells after 48 hrs by MTT assay. In kind it is functional. To be noted: MCF7, 48 h.
The subject of test [6] is NCI/ADR-RES. The test is described as follows: Cytotoxicity against human NCI-ADR-RES cells after 48 hrs by MTT assay. Type of test: functional. On the technique in general: Tetrazolium assays rely on reduction of a dye to a coloured formazan, in cell work by metabolically active cells.
The test system of test [7] is U-251. The test is described as follows: Cytotoxicity against human U251 cells after 48 hrs by MTT assay. In kind it is functional. Particulars: U-251, 48 h.
In test [8] the target is Transcription factor p65 (Homo sapiens, UniProt Q04206). The test is described as follows: Inhibition of NF-kappaB p65 in human HeLa cells nuclear extract by chemiluminescent assay. Type of test: cell-free.
Chain of Transcription factor p65 (Q04206 whole entry): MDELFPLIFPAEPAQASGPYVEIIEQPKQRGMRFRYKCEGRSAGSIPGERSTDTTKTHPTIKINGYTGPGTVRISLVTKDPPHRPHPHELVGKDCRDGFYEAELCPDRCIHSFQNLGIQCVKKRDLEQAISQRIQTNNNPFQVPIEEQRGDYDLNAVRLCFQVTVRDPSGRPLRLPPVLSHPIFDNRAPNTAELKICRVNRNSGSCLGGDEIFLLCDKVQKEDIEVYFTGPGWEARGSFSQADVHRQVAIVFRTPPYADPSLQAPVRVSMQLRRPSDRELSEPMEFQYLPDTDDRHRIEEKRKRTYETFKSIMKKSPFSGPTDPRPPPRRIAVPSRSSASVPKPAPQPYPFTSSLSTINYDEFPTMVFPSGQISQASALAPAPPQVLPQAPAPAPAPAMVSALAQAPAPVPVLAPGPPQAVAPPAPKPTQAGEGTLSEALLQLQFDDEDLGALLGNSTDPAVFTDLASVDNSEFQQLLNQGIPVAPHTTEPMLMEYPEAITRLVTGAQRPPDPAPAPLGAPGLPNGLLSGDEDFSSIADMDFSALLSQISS

SMILES strings stand for the structures.

One may read the IC50 as the concentration that gives 50% inhibition. A lower IC50 goes with inhibition by little substance. For the compound `C=CC(C)(C)c1cc(-c2oc3cc(O)ccc3c2Cc2cc(-c3cc4cc(C(C)(C)C=C)c(O)cc4oc3=O)c(O)cc2O)c(O)cc1O`, the Ratio in test [1] is on record as 1.3 - 7.4. In test [2], this compound displayed an IC50 of 1.6 to 4.5 µM. Further, the ED50 in test [3] is 0.7 to 0.9 µM.

As for `C[S+]([O-])CCCCN=C=S` (stereo not drawn) [SULFORAPHANE], in test [1], the Ratio amounted to 21.4.

For the compound `C=CC(C)(C)c1cc2c(cc1O)OC[C@H](c1cc(-c3oc4cc(O)ccc4c3C(=O)c3cc(C(C)(C)C=C)c(O)cc3O)c(O)cc1O)C2`, in test [1], the Ratio is on record as 1.3 - 7.4. Further, in test [2], the half-inhibitory concentration (IC50) lay within 1.6 to 4.5 µM. Besides, the ED50 in test [3] is 0.7 to 0.9 µM.

One may read the TGI as the concentration giving total growth inhibition. Low readings indicate greater sensitivity of the cells, high ones lower sensitivity of the cells. In the case of `COc1cccc2c1C(=O)c1c(O)c3c(c(O)c1C2=O)C[C@@](O)(C(=O)CO)C[C@@H]3O[C@H]1C[C@H](N)[C@H](O)[C@H](C)O1` [DOXORUBICIN], the TGI turned out to be 4 µM in test [4], 12.2 µM in test [5], 16.1 µM in test [6] and 6.9 µM in test [7].

On to `C=CC(C)(C)c1cc(C(=O)c2c(-c3cc(-c4cc5cc(C(C)(C)C=C)c(O)cc5oc4=O)c(O)cc3O)oc3cc(O)ccc23)c(O)cc1O`, for which the IC50 in test [8] was 0.006 µM; in test [2], 1.6 to 4.5 µM. In addition, the Ratio in test [1] was 1.3 - 7.4. Moreover, the ED50 in test [3] lay within 0.7 to 0.9 µM.

One may read the LC50 as the concentration lethal to half of the exposed cells or organisms. Compound `COc1ccc2c(c1)OCC(c1cc(Cc3c(-c4ccc(O)cc4O)oc4cc(OC)ccc34)c(O)cc1O)C2` (stereo not drawn) registered an LC50 in test [4] of at least 10 µM. Moreover, the TGI came out at 19.1 µM in test [4], 27 µM in test [5], 19.1 µM in test [6] and 17.2 µM in test [7]. This compound registered an LC50 (lethal concentration 50%) in test [5] of at least 10 µM. Besides, in test [6], the LC50 (concentration killing 50% of cells) is at least 10 µM. In addition, the CC50 in test [7] (read-out: LC50 (the source's name)) was at least 10 µM.

`COc1ccc2c(c1)OCC(c1cc(-c3oc4cc(OC)ccc4c3Cc3ccc(O)cc3O)c(O)cc1O)C2` (stereo not drawn) gave an LC50 in test [4] of at least 10 µM. Besides, the TGI in test [4] was found to be 21.9 µM; in test [5] it was 34.6 µM; in test [6] it was 29.9 µM; in test [7], 25 µM.

The values are drawn from ChEMBL document CHEMBL4622890, “Antiproliferative Flavanoid Dimers Isolated from Brazilian Red Propolis” (J Nat Prod, 2020).
